This assay relates to eyes of allergic subjects challenged with allergen solution (birch, cat hair, cat dander). Description: Conjunctival allergen challenge (CAC), onset of action and duration of action study. The conditions noted are these: for Mean Differences (Active-Placebo), 15 Min Itching, Timepoint 1 / Mean Differences (Active-Placebo), 15 Min Itching, Timepoint 2 / Mean Differences (Active-Placebo), 15 Min Itching, Timepoint 3 / Mean Differences (Active-Placebo), 15 Min Redness, Timepoint 1 / Mean Differences (Active-Placebo), 15 Min Redness, Timepoint 2 / Mean Differences (Active-Placebo), 15 Min Redness, Timepoint 3: challenge 15 min after one drop; for Mean Differences (Active-Placebo), 16 hr Itching, Timepoint 1 / Mean Differences (Active-Placebo), 16 hr Itching, Timepoint 2 / Mean Differences (Active-Placebo), 16 hr Itching, Timepoint 3 / Mean Differences (Active-Placebo), 16 hr Redness, Timepoint 1 / Mean Differences (Active-Placebo), 16 hr Redness, Timepoint 2 / Mean Differences (Active-Placebo), 16 hr Redness, Timepoint 3: challenge 16 hr after one drop. The format is in vivo, human. On the procedure: These following studies were performed using the standard conjunctival allergen challenge model as described in Abelson et al., Arch Ophthalmol. 108(1): 84-88 (1990), and Abelson et al., Curr Allergy Asthma Rep. 3(4): 363-8 (2003). Each experiment was a double-masked, contralateral placebo controlled, single center, onset of action and duration of action allergen challenge study.
A baseline ocular exam was performed to rule out any subjects with any ocular surface anomaly that would interfere with evaluations. A bilateral conjunctival allergen challenge was performed with the allergen to which the subject was known to be allergic to as evidenced by a skin test or previous conjunctival allergen challenge.
Subjects were administered one drop of masked study medication in each eye as described in the below tables (see Table 1-3). A period of at least 1 week was left between experiments on each single subject. At the specified timepoints, subjects were challenged bilaterally with one drop of allergen solution (allergen used were birch, cat hair, cat dander) at a concentration that was known to historically elicit a positive response (Abelson et al., Arch Ophthalmol. 108(1): 84-88 (1990)). Phosphate buffered saline (PBS) was used as placebo. A historic positive response to the challenge was defined as at least a +2.0 itching and +2.0 redness on scales 0-4, with 0 being none and 4 being severe.
Subjects were asked to grade their ocular itching on standardized scales described in Abelson et al., Arch Ophthalmol. 108(1): 84-88 (1990), scoring was performed from a scale of 0-4 at 3, 5, and 7 minutes post-challenge. Redness was graded by a masked observer on standardized scales 0-4 at 10, 15, and 20 minutes post-challenge. Digital photographs were taken of each eye at the 15 minute timepoint. If needed, subjects were administered one drop of a currently marketed topical anti-allergic medication (Naphcon A™: pheniramine maleate 0.3%/naphthazoline hydrochloride 0.025% ophthalmic solution) to relieve any immediate discomfort at the end of the visit.
Data from all subjects who completed any post-challenge examination was evaluable for that experiment and treatment. Mean itching and redness scores were compared between the treated eye and placebo eye to determine an efficacy score.

Setting [1] is: itching scale 0-4, timepoint 1 of 3, 5, 7 min post-challenge.
The mark [2] stands for this setting: itching scale 0-4, timepoint 2 of 3, 5, 7 min post-challenge.
[3] abbreviates: itching scale 0-4, timepoint 3 of 3, 5, 7 min post-challenge.
Setting [4] is: redness scale 0-4, timepoint 1 of 10, 15, 20 min post-challenge.
The mark [5] stands for this setting: redness scale 0-4, timepoint 2 of 10, 15, 20 min post-challenge.
Where [6] appears, read: redness scale 0-4, timepoint 3 of 10, 15, 20 min post-challenge.

Molecules are shown by their SMILES.

With `CN1CCC(=C2c3ccccc3CC(=O)c3sccc32)CC1` [Keto 0.05%, ketotifen], under setting [1], the “Mean Differences (Active-Placebo), 15 Min Itching, Timepoint 1” value was −2.00 and the “Mean Differences (Active-Placebo), 16 hr Itching, Timepoint 1” value is given as 0.75. Under setting [2], the “Mean Differences (Active-Placebo), 15 Min Itching, Timepoint 2” value is recorded as −2.33 and the “Mean Differences (Active-Placebo), 16 hr Itching, Timepoint 2” value turned out to be 0.25. For the same compound, under setting [3], the “Mean Differences (Active-Placebo), 15 Min Itching, Timepoint 3” value is −2.00 and the “Mean Differences (Active-Placebo), 16 hr Itching, Timepoint 3” value is reported as 0.25. Also, under setting [4], the “Mean Differences (Active-Placebo), 15 Min Redness, Timepoint 1” value was −1.50 and the “Mean Differences (Active-Placebo), 16 hr Redness, Timepoint 1” value is 0.5. Besides, under setting [5], the “Mean Differences (Active-Placebo), 15 Min Redness, Timepoint 2” value is recorded as −1.17 and the “Mean Differences (Active-Placebo), 16 hr Redness, Timepoint 2” value is 0.5. Under setting [6], the “Mean Differences (Active-Placebo), 15 Min Redness, Timepoint 3” value was −1.50 and the “Mean Differences (Active-Placebo), 16 hr Redness, Timepoint 3” value was 0.25.
With `CN1CCCC(n2nc(Cc3ccc(Cl)cc3)c3ccccc3c2=O)CC1` (stereo not drawn) [Azelastine 0.05%, azelastine], the “Mean Differences (Active-Placebo), 15 Min Itching, Timepoint 1” value under setting [1] is on record as −2.5. Further, the “Mean Differences (Active-Placebo), 15 Min Itching, Timepoint 2” value under setting [2] is −2.5. Under setting [3], the “Mean Differences (Active-Placebo), 15 Min Itching, Timepoint 3” value is −2.5. Further, under setting [4], the “Mean Differences (Active-Placebo), 15 Min Redness, Timepoint 1” value stood at 0. The “Mean Differences (Active-Placebo), 15 Min Redness, Timepoint 2” value under setting [5] is on record as 0. Besides, under setting [6], the “Mean Differences (Active-Placebo), 15 Min Redness, Timepoint 3” value was 0. Under “challenge 4 hr after one drop, itching scale 0-4, timepoint 1 of 3, 5, 7 min post-challenge”, the “Mean Differences (Active-Placebo), 4 hr Itching, Timepoint 1” value was −0.5. Besides, where the note is “challenge 4 hr after one drop, itching scale 0-4, timepoint 2 of 3, 5, 7 min post-challenge”, the “Mean Differences (Active-Placebo), 4 hr Itching, Timepoint 2” value is reported as −1.0. In addition, under “challenge 4 hr after one drop, itching scale 0-4, timepoint 3 of 3, 5, 7 min post-challenge”, the “Mean Differences (Active-Placebo), 4 hr Itching, Timepoint 3” value is given as −1.0. The “Mean Differences (Active-Placebo), 4 hr Redness, Timepoint 1” value (challenge 4 hr after one drop, redness scale 0-4, timepoint 1 of 10, 15, 20 min post-challenge) is listed as “+0.5”. Moreover, the “Mean Differences (Active-Placebo), 4 hr Redness, Timepoint 2” value (challenge 4 hr after one drop, redness scale 0-4, timepoint 2 of 10, 15, 20 min post-challenge) is on record as “+1.0”. Where the note is “challenge 4 hr after one drop, redness scale 0-4, timepoint 3 of 10, 15, 20 min post-challenge”, the “Mean Differences (Active-Placebo), 4 hr Redness, Timepoint 3” value was “+1.0”.
As to `CN(C)CCC(c1ccccc1)c1ccccn1` (stereo not drawn) [Pheniramine 0.5%, pheniramine], under setting [1], the “Mean Differences (Active-Placebo), 15 Min Itching, Timepoint 1” value is −2.67 and the “Mean Differences (Active-Placebo), 16 hr Itching, Timepoint 1” value was −0.25. For the same compound, under setting [2], the “Mean Differences (Active-Placebo), 15 Min Itching, Timepoint 2” value is recorded as −2.33 and the “Mean Differences (Active-Placebo), 16 hr Itching, Timepoint 2” value is 0. Further, under setting [3], the “Mean Differences (Active-Placebo), 15 Min Itching, Timepoint 3” value is on record as −2.17 and the “Mean Differences (Active-Placebo), 16 hr Itching, Timepoint 3” value was found to be 0. Moreover, under setting [4], the “Mean Differences (Active-Placebo), 15 Min Redness, Timepoint 1” value is on record as −1.67 and the “Mean Differences (Active-Placebo), 16 hr Redness, Timepoint 1” value turned out to be 0.25. Under setting [5], the “Mean Differences (Active-Placebo), 15 Min Redness, Timepoint 2” value is given as −1.83 and the “Mean Differences (Active-Placebo), 16 hr Redness, Timepoint 2” value came out at 0.25. Besides, under setting [6], the “Mean Differences (Active-Placebo), 15 Min Redness, Timepoint 3” value is −1.67 and the “Mean Differences (Active-Placebo), 16 hr Redness, Timepoint 3” value is listed as 0.25.
In the case of `c1ccc(CN(CC2=NCCN2)c2ccccc2)cc1` [Antazoline 0.5%, antazoline], the “Mean Differences (Active-Placebo), 15 Min Itching, Timepoint 1” value under setting [1] is recorded as −2.33. The “Mean Differences (Active-Placebo), 15 Min Itching, Timepoint 2” value under setting [2] is −2.83. Moreover, under setting [3], the “Mean Differences (Active-Placebo), 15 Min Itching, Timepoint 3” value is listed as −2.5. Under setting [4], the “Mean Differences (Active-Placebo), 15 Min Redness, Timepoint 1” value is recorded as −0.83. Also, under setting [5], the “Mean Differences (Active-Placebo), 15 Min Redness, Timepoint 2” value is recorded as −0.83. The “Mean Differences (Active-Placebo), 15 Min Redness, Timepoint 3” value under setting [6] is reported as −1.00.

Values taken from patent US20040198828A1, “Combinational use of long-acting and short-acting anti-histamines for ocular allergies” (priority 2003, published 2004).
